The target in one series is Dopamine D-2 Receptors. The conditions noted are these: Table II, known dopamine D-2 receptor ligands; cited from earlier work.
The target of series [1] is T1, dopamine D2 receptor (Rat Striatal Membranes) (Rattus norvegicus, UniProt P61169).
T1 construct: Rat tissue homogenates were prepared as described previously; from tissue; host or cells: rat striatal membranes (tissue homogenate)
The experiment in a line: Competition for ^125 I-FIDA-2 binding to rat striatal membranes. On the procedure: (§1) Rat tissue homogenates were prepared as described previously. Murphy, R. A., et al., J. Med. Chem. 33, 171-178 (1990). The binding assays were performed by incubating 50 μL of tissue preparations containing 40-60 μg of protein with appropriate amounts of ^125 I-labeled ligand and competitors in a total volume of 0.2 mL of the assay buffer. After an incubation period of 15 min at 37° C. (with stirring), the samples were rapidly filtered in a cell harvester (Brandel M-24R) under vacuum through Whatman GF/B glass-fiber filters pretreated with […] protamine base and washed with 3×5 mL of cold (4° C.) 50 mM Tris-HCI buffer, pH 7.4. The nonspecific binding was obtained in the presence of 10 μM (+)butaclamol. The filters were counted in a γ counter (Beckman 5500) at an efficiency of 70%. Both Scatchard and competition experiments were analyzed with the iterative nonlinear least squares curve-fitting program LIGAND.

Series [2] deals with T1, dopamine D2 receptor (Rat Striatal Membranes). The experiment in a line: Competition for ^125 I-FIDA-1 binding to rat striatal membranes. The procedure:
as §1

The nature of series [3]: In vivo biodistribution in rats (organ uptake). The conditions noted are these: iv; for liver uptake (in words): first 30 min. On the set-up: species or system rat. On the procedure: Male Sprague-Dawley rats (225-300 g), which were allowed free access to food and water, were used for the vivo biodistribution study. […] The organs of interest were removed and weighed and the radioactivity was counted with a Beckman gamma automatic counter (Model 4000). The percent dose per organ was calculated by a comparison of the tissue counts to suitably diluted aliquots of the injected material. Total activities of blood and muscle were calculated under the assumption that they were 7% and 40% of the total body weight, respectively.

Series [4] relates to dopamine receptors (striatum). The experiment in a line: Regional brain distribution in rats (uptake ratio of region to cerebellum). In kind it is in vivo, rat. The conditions noted are these: iv. On the procedure: Male Sprague-Dawley rats (225-300 g), which were allowed free access to food and water, were used for the vivo biodistribution study. While under halothane anesthesia, 0.2 mL of a saline solution containing [^125 I]FIDA 8 or 10 (8-10 μCi) was injected […] into the femoral vein of rats, and they were sacrificed at various time points postinjection by cardiac excision under halothane anesthesia. The organs of interest were removed and weighed and the radioactivity was counted with a Beckman gamma automatic counter (Model 4000). The percent dose per organ was calculated by a comparison of the tissue counts to suitably diluted aliquots of the injected material. Total activities of blood and muscle were calculated under the assumption that they were 7% and 40% of the total body weight, respectively.
Regional brain distribution in rats was obtained after an injection of [^125 I]FIDA 8 or 10. By dissecting, weighing, and counting samples from different brain regions (cortex, striatum, hippocampus, and cerebellum), the percent dose/gram of sample was calculated by comparing the sample counts with the count of the diluted initial dose. The uptake ratio of each region was obtained by dividing the percent dose/gram of each region by that to the cerebellum.

Setting [5] is: rat striatal membranes, 15 min at 37° C., nonspecific binding with 10 μM (+)butaclamol, read-out: Ki, inhibition constant on ^125 I-FIDA-2 binding.

“Also recorded” adds a separate entry of the source. Some results are limits rather than exact numbers.

One may read the Kd as the equilibrium constant for the complex coming apart. What is called Ki is the equilibrium dissociation constant of an inhibitor or competing ligand from its target.

T1 sequence (P61169 whole entry): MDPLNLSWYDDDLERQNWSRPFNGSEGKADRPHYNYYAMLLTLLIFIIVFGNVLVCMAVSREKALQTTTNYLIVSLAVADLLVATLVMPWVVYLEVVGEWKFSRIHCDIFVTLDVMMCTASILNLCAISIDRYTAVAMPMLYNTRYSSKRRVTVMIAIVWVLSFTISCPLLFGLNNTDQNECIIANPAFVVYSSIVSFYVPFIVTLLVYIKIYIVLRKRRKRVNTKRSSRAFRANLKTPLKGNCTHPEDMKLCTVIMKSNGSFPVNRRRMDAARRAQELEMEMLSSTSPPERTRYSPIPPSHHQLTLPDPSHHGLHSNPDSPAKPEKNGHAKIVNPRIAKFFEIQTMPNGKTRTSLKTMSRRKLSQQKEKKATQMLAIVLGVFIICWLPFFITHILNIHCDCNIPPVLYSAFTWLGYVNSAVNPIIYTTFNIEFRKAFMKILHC

As to `CCN1CCC[C@H]1CNC(=O)c1cc(I)cc(OC)c1OC` [Epidepride], the Kd at Dopamine D-2 Receptors is 0.024 nM.
For the compound `COc1cc(I)cc(C(=O)NC[C@H]2CCCN2Cc2ccc(F)cc2)c1OC` [FIDA2, R(+)-2,3-dimethoxy-N-[(1-(4' -fluorobenzyl)-2-pyrrolidinyl)methyl]-5-iodobenzamide], the “binding specificity and selectivity (FIDA2 radioligand)” value in series [1] (competition study with various types of receptor ligands) was “specifically binds to the dopamine D2 receptor with great selectivity”.
`CCN1CCC[C@H]1CNC(=O)c1cc(CCCF)cc(OC)c1OC` [Fluoropropyl-Epidepride]: the Kd at Dopamine D-2 Receptors is 0.03 nM.
On to `CCN1CCC[C@H]1CNC(=O)c1cc(I)cc2c1OCC2` [IBF], for which, on Dopamine D-2 Receptors, the Kd was 0.106 nM.
Take `CCN1CCC[C@H]1CNC(=O)c1c(OC)ccc(I)c1O` [IBZM]: the Kd at Dopamine D-2 Receptors is 0.426 nM.
With `CCN1CCC[C@H]1CNC(=O)c1c(O)c(I)cc(OC)c1OC` [Ioxipride], on Dopamine D-2 Receptors, the Kd is 0.019 nM.
Take `CCN1CCC[C@H]1CNC(=O)c1c(O)c(Cl)cc(Cl)c1OC` [Raclopride]: at Dopamine D-2 Receptors, the Kd was 10 nM.
Regarding `COc1cccc(OC)c1OCCNCC1COc2ccccc2O1` (stereo not drawn) [WB 4101], the Ki in series [2] (rat striatal membranes, 15 min at 37° C., nonspecific binding with 10 μM (+)butaclamol, read-out: Ki, inhibition constant on ^125 I-FIDA-1 binding) is 33.1 ± 1.5 nM; in series [1] (setting [5]) it was 23.3 ± 2.2 nM.
Regarding `CCN1CCC[C@H]1CNC(=O)c1cc([123I])cc(OC)c1OCCF` [[^123 I]FIDA1], in series [3], the “brain uptake (in words)” value is recorded as “moderate brain uptake”, the “liver clearance (in words)” value was “rapidly washed out at 1 h postinjection” and the “liver uptake (in words)” value was “remained high for the first 30 min”. The “brain washout (in words)” value in series [3] (1 h after injection) is on record as “a large portion of the radioactivity has washed out from the brain; also recorded: the radioactivity had washed out from the brain”. Moreover, in series [4], the “increase in target to nontarget ratio vs. time, hippocampus and cortex” value is “not observed”; the “retention in striatum (in words)” value was “prolonged retention”. Moreover, the “striatum/cerebellum (ST/CB) ratio” value in series [4] (30 min) turned out to be 8.26. Also, the “striatum/cerebellum (ST/CB) ratio” value in series [4] (60 min) is given as 29.3. Also, the “striatum/cerebellum (ST/CB) ratio” value in series [4] (printed 10 min) was 60.7.
`COc1cc([123I])cc(C(=O)NC[C@H]2CCCN2Cc2ccc(F)cc2)c1OC` [[^123 I]FIDA2]: in series [3], the “brain uptake (in words)” value is “better brain uptake in rats than [^123 I]FIDA1; also recorded: higher brain uptake than [^123 I]FIDA1”, the “liver clearance (in words)” value is “slower than it was for [^123 I]FIDA1” and the “liver uptake (in words)” value is reported as “High initial uptake in the liver”. Besides, the brain uptake in series [3] (time not stated) amounted to 0.98 % dose/organ. In series [4] (2 min), the ST/CB ratio came out at 1.2. Also, the ST/CB ratio in series [4] (120 min) came to 25.2.
Regarding `CN1[C@@H]2CC[C@H]1C[C@@H](OC(=O)C(CO)c1ccccc1)C2` (stereo partly drawn) [atropine], the Ki in series [2] and in series [1] was greater than 10000 nM throughout.
Turning to `COC(=O)[C@@H]1[C@H]2C[C@H]3c4[nH]c5ccccc5c4CCN3C[C@@H]2CC[C@@H]1O` [yohimbine], the Ki in series [1] (setting [5]) was determined as 505 ± 70 nM.
